# Results taken from patent US20260284138A1, “METHODS OF MODULATING THE EPITHELIAL-MESENCHYMAL TRANSITION” (RS Oncology, LLC, priority 2023, published 2026).
# Assays:
# [1] = tested on: human biphasic mesothelioma cell lines; experiment: RNA-Seq / RT-qPCR gene expression in mesothelioma cells treated with TS; assay type: cell-based
# Experimental: Described herein are methods to evaluate changes in gene expression in malignant mesothelioma cells (H-meso cell line) treated with thiostrepton (HM-TS) for 16 hrs and compare to HM-TSR (TS_tolerant cells) grown in the presence of […] TS for several weeks. Biological triplicates were generated, RNA extracted, and RNA integrity evaluated. Cell lysates and cDNA were evaluated for known gene changes by RT-qPCR prior to library builds. Libraries were generated using the SMARTer® Stranded RNA-Seq Kit HT from Takara, pooled and analyzed on the Illumina HiSeq 1500 using a rapid run dual lane SE sequencing flow cell. Each library yielded an average of […] mapped reads.
# Spatial multiregional sampling of adjacent, intra-tumour E (7) vs S (12) regions from 7 patients with bi-phasic mesothelioma was followed by whole exome, transcriptome and 100-plex immunofluorescence analysis (employing cytokeratin-based cell segmentation). Machine learning (random forests) was employed to infer E to S evolutionary trajectories at the genomic, transcriptomic and protein levels. Biphasic human mesothelioma cells were treated with the PRX3 inhibitor RSO-021 (thiostrepton) and gene-expression changes were evaluated by RT-qPCR.
# E and S transition requires Mitochondrial peroxiredoxin 3 (PRX3). […] EMT, hypoxia and glycolysis associated transcription were reduced in RSO-021 treated cells (FIG. 4B). […] Further, MAPK13 (p38) expression is increased in TS treated cells (FIG. 4F). p38 negatively regulates TEAD signaling while TEAD promotes EMT and tumorigenesis. […] TGFb is a master regulator of EMT. VGLL4 inhibits TEAD transcription (FIG. 4H). […] Mesothelin (MSLN) is exclusively expressed in epithelioid MM (FIG. 5A). TS resistant cells increase MSLN expression, indicating a switch to an epithelioid phenotype. EMT is a primary driver in the Epithelioid to sarcomatoid transition (FIG. 5B).
# PRX3 = PRX3 crosslinking by reducing SDS-PAGE and western blot; assay type: cell-based, human
# Source text: PRX3 is the primary mitochondrial peroxidase required for H2O2 clearance from the mitochondria induced by metabolic, tumorigenic, and drug treatment inputs. During the metabolism of H2O2, PRX3 forms an intramolecular disulfide bond that orients the second active site for TS-dependent covalent crosslinking, inactivating the protein leading to increased oxidative stress and tumor cell death.
# (§1) Erastin potentiates PRX3 crosslinking and ROS generation by TS. FIG. 10A show Western blot from HM cells treated with TS (1 μM), erastin (ER, 2.5 μM) or TS+ER for 24 hours. Samples were run under reducing conditions by SDS-PAGE. FIG. 10B show quantification of PRX3 dimer (TS-crosslink) to PRX3 monomer (unmodified PRX3) from protein western blots as in A (n=2 biological replicates). FIG. 10C show ROS levels in cells treated with TS, ER, or TS+ER for 24 hours (n=2 biological replicates, 3 technical replicates). FIG. 10D show protein western blot of cells cultured in media+/−cystine and treated with TS or ER. PRX3 crosslinking by TS is increased in cells cultured in cystine free (−) media.
# HM cells [2] = experiment: Cell viability assay of HM cells; assay type: cell-based, human
# Experimental: (§2) FIG. 8A show BAP1 protein expression in immortalized mesothelial (LP9), pleural Meso (HM, MI), and peritoneal Meso (Pet-Gar) cell lines. […] FIG. 8B show EC50 values for TS in normal and MM cell lines (*p<0.05, **p<0.01, ***p<0.001, ****p <0.0001, n=4 biological replicates) FIG. 8C show protein western blots of BAP1 and GAPDH in HM scramble control (SCR) and BAP1 siRNA expressing (siBAP1) cells. FIG. 8D show cell viability curves of cells treated with TS 48 hours (n=3).
# ZSS>10 indicates synergy between the two compounds.
# TS synergy with ER is independent of ferrostatin sensitive MOA.
# Knockdown of SLC7A11 potentiates TS activity. […] PRX3 crosslinking is increased in the SLC7A11 KD samples.
# BAP1 = BAP1 protein expression by western blot; assay type: cell-based, human; details: TS 4 μM; LP9, HM, MI, Pet-Gar cell lines
# Experimental: as §2
# [3] = tested on: patient derived explants (PDEs); experiment: Gene set enrichment analysis of patient derived explants treated with TS; assay type: cell-based, human; details: PDEs treated with 10 μM of TS vs untreated
# Source text: Mesothelioma, a lethal cancer associated with asbestos exposure, lacks effective drug therapy particularly in the relapsed treatment setting. Epithelial-to-mesenchymal transition (EMT) confers an aggressive sarcomatoid phenotype capable of invasion, metastasis, and drug resistance. Pharmacological targeting of EMT could favorably alter the progression and treatment of mesothelioma. Mesothelioma cells rely on buffering of mitochondrial oxidative stress through the expression and activity of mitochondrial peroxiredoxin 3 (PRX3), which is covalently inactivated by the inhibitor RSO-021 (Thiostrepton, TS). To better understand the pharmacodynamics of TS, transcriptomic profiles of drug sensitive and resistant biphasic mesothelioma cell lines were generated. […] Lastly, downregulation of EMT by TS was determined in a cohort of TS treated mesothelioma surgical explants. In summary, PRX3 is a clinically actionable drug target, inhibition of which correlates with EMT modulation.
# [4] = tested on: cytokine levels in pleural effusion; experiment: Phase 1/2 clinical trial: cytokine levels in pleural effusion by ELISA; assay type: in vivo, human; details: pleural effusion pre- and post-treatment, weekly intrapleural administration
# Source text: FIGS. 7A-7B show administration of RSO-021 and effect on cytokine levels. […] Prior to each dose patients will have pleural effusion drained to dryness per standard of care. After each administration, the IPC is secured until next RSO-021 dosing time point. […] Absolute values as determined following ELISA are shown from 7 patients enrolled on the trial.
# RSO-021 is a PRX3 inhibitor that was investigated in a first-in-human phase ½ clinical trial, recruiting patients with malignant pleural effusion (MPE) arising from mesothelioma or other solid tumors. Mesothelioma cells rely on buffering of mitochondrial oxidative stress through the expression and activity of mitochondrial PRX3, which is covalently inactivated by RSO-021. Inactivation of PRX3 by RSO-021 leads to increased oxidative stress and tumor cell death. RSO-021 may be administered weekly via an intrapleural catheter. Cytokine levels in pleural effusion drainages were measured by ELISA assays. Tumor explants were grown following surgical resection of mesothelioma tumors. RNA sequencing of MM cell lines was conducted. […] RNA sequencing of cells derived from pre-and post-treated MPE aims to identify RSO-021 induced transcriptional changes and their association with clinical activity. […]
# [5] = Preclinical animal studies, tolerability; assay type: in vivo
# Source text: (§3) RSO-021 is a PRX3 inhibitor that inactivates PRX3 through direct covalent adduction of active site cysteine residues, in turn, inducing oxidative stress to levels incompatible with tumor cell survival.
# mitochondrial PRX3 = experiment: Preclinical PRX3 inhibition in transformed cells; assay type: cell-based
# Source text: as §3
# HM cells [6] = experiment: ROS levels in treated cells; assay type: cell-based, human; details: ER or TS+ER, 24 hours
# Experimental: as §1
# HM-TSR cells = experiment: Cell viability assay of TS-resistant HM-TSR cells; assay type: cell-based, human; details: TS+ER 48 hours
# Experimental: TS-resistant cells over-express SLC7A11 and are re-sensitized to TS by Erastin (ER). HM cells were dosed with TS by repetitive drug treatment with a short 24-48 hr recovery period. […] Development of a drug-tolerant cell line with tolerance at […] after 8 months. […] The shift in sensitivity of the HM-TSR-TS line to the HM-TSR-TS/ER line.
smiles,measurement,setting,value
"C=C(NC(=O)C(=C)NC(=O)c1csc(C2=N[C@@H]3c4csc(n4)[C@H]4NC(=O)c5csc(n5)[C@H]([C@](C)(O)[C@@H](C)O)NC(=O)[C@H]5CSC(=N5)/C(=C/C)NC(=O)[C@H]([C@@H](C)O)NC(=O)c5csc(n5)[C@]3(CC2)NC(=O)[C@H](C)NC(=O)C(=C)NC(=O)[C@H](C)NC(=O)[C@H]([C@@H](C)CC)N[C@@H]2C=Cc3c([C@H](C)O)cc(nc3[C@H]2O)C(=O)O[C@@H]4C)n1)C(N)=O [TS, Thiostrepton]","EMT, hypoxia and glycolysis associated transcription","[1]; GSEA, treated vs control cells, FIG. 4B",reduced
same,VISTA expression,"[1]; RSO-021 treated cells, FIG. 4D",upregulated
same,MAPK13 (p38) expression,"[1]; TS treated cells, FIG. 4F",increased
same,TGFb1 and TGFb2 expression,"[1]; TS treated cells, FIG. 4G",downregulated
same,"Additional TEAD targets EGFR, DKK1, WNT5B, SLC7A5, and WNT5A","[1]; TS treatment, FIG. 4I",downregulated
same,"TEAD target genes, TGF-β and EMT associated genes including CDH2","[1]; biphasic mesothelioma cells, FIG. 4A",downregulated
same,mesothelin (MSLN) expression,"[1]; biphasic mesothelioma cells, FIG. 4A/4D",upregulated
same,ROS response and apoptosis signaling,[1]; differential transcriptomic analysis,upregulation
same,"expression of mesothelioma specific EMT genes Col5A, mesothelin, and VISTA",[1]; transcriptomic profiles,altered expression
same,PRX3 crosslinking,"PRX3; SLC7A11 KD samples, FIG. 12C",increased
same,PRX3 crosslinking by TS,PRX3; cells cultured in cystine free (−) media,increased
same,modified PRX3 (PRX3-TS),PRX3; reducing SDS-PAGE and western blotting,dose-dependent irreversible increase
same,TS activity in relation to BAP1 expression,"HM cells [2]; BAP1 siRNA vs scramble, TS 48 hours",independent of BAP1 expression
same,TS activity on knockdown of SLC7A11,"HM cells [2]; HM cells, SLC7A11 siRNA",potentiates
same,BAP1 protein expression,BAP1,does not alter
same,epithelial mesenchymal transition genes,[3],downregulated
same,"cytokine levels including Resistin, IL-8 and IL-6",[4],significant changes
same,tolerability,[5],well-tolerated
same,selectivity of mitochondrial PRX3 inhibition,mitochondrial PRX3,selectively inhibits
"CCOc1ccccc1-n1c(C(C)N2CCN(C(=O)COc3ccc(Cl)cc3)CC2)nc2ccccc2c1=O (stereo not shown) [Erastin, erastin]",effect on PRX3 crosslinking by TS,"PRX3; HM cells, TS 1 μM, erastin 2.5 μM, 24 hours",potentiates
same,effect on ROS generation by TS,HM cells [6],potentiates
same,sensitivity of TS-resistant cells to TS,HM-TSR cells,re-sensitized
"CCOC(=O)c1ccc(NC2CCCCC2)c(N)c1 [Fer-1, Ferrostatin]",effect on PRX3 crosslinking by TS or TS+ER,"PRX3; cells treated +/- Fer-1, FIG. 11C",does not alter
same,effect on TS/ER cytotoxic synergy,HM cells [2]; 48 hours,does not block
same,effect on ER cytotoxicity,"HM cells [2]; 48 hours, FIG. 11A",blocks
